In publication PMC6934184, “Selective DNA-PKcs inhibition extends the therapeutic index of localized radiotherapy and chemotherapy” (The Journal of Clinical Investigation, 2019):

Biological target: T1, RPS6KA3 (RSK2) (Homo sapiens, UniProt P51812)
T1 construct: purchased Thermo Fisher Scientific (Life Technologies) SelectScreen
Experiment: SelectScreen Z'LYTE
Format: biochemical
Outline: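 SelectScreen broad panel; activity (Z'LYTE, Adapta) plus binding formats. ATP: Km app for CSF1R Z'LYTE; 10 for CAMK1 Adapta. Readout = % per kinase.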

T1 sequence (P51812 whole entry): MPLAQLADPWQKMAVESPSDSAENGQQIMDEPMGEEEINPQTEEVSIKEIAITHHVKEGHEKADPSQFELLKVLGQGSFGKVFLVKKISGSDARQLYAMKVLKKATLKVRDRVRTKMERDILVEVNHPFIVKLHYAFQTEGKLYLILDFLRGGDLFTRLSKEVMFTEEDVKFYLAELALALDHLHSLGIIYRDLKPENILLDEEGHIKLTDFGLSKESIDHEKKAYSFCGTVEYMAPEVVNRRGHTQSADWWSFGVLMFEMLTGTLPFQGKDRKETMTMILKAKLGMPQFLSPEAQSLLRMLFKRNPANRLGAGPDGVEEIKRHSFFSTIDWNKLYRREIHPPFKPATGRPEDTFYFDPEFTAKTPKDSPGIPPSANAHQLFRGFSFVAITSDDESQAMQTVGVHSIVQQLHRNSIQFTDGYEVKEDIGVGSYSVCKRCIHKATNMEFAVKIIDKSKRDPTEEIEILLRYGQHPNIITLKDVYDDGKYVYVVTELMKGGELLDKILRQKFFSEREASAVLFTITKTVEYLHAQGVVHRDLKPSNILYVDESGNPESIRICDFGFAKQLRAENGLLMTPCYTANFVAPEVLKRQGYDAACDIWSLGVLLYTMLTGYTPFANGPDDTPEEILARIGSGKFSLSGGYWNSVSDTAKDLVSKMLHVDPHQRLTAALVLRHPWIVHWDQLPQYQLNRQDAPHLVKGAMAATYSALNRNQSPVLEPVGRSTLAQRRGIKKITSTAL

In the case of `CN(C(=O)CN1CCOCC1)c1ccc2sc3c(-c4cccc5c(=O)cc(N6CC7CCC(C6)O7)oc45)cccc3c2c1` [NU5455], the inhibition at 1 µM is reported as 2.1%.
